From EP0298064A2, “Birth control and diagnostic methods” (BIOCARB AB, priority 1987, dated 1989)

What was measured:
[1] = system: implantation; experiment: In vivo inhibition of implantation in the mouse (intrauterine injection); design: species or system NMRI mice
Method: In this study the effect of structure A, injected into the uteri of naturally mated and unstimulated mice, was investigated.
10 weeks old NMRI mice were caged with NMRI males of previously proven fertility.
At plug day 4 (at 1 p.m.) the mice were anaestezed using mebumal. The abdomen was opened through a midline incision and the genital tract was identified. A 6-0 selk sutur was placed around the vaginal top intraperitoneally. 5µl of Earle's balanced salt solution (EBS) supplemented with 5 mmol/l of structure A or unsupplemented were injected into the uterine horns. The test group contained 20 mice who were injected with supplemented media containing structure A, where as the controls (15 mice) were injected with EBS unsupplemented medium.

[2] = system: blastocyst implantation in murine endometrial epithelium monolayers; experiment: In vitro implantation - mouse model (blastocysts co-cultured with endometrial monolayer); format: cell-based; details: for Test impl/total (no. of blastocysts implanting/total no. of blastocysts added to the culture): test medium supplemented with 0.1 mM test oligosaccharide, control medium values stand in the neighbouring column
Method: In the mouse in vitro implantation system blastocyst implantation in murine endometrial epithelium monolayers was compared in 2 different media: the control medium (i.e. a medium which had supported more than 80% murine blastocyst formation from 2-cell embryos within 72 hours) and test medium (i.e. identical with the control medium except supplemented with 0.1 mM test oligosaccharide).
As control medium we used Earle's minimum essential medium (MEM) (Flow Lab), supplemented with penicillin-G 0.0075 g/l, streptomycin 0.075 g/l, glutamine 1 mM, fetal calf serum 5% and a vegetable protein source 2% (Ultrose-G, LKB, 2216-100). The final osmolality was adjusted to 285 mOsmol/kg and a pH of 7.4.
The mice were F1 hybrid B6D2F1/Bom (from the Laboratory of Animal Breeding and Research Center, Gl.Bomholdt Gȧrd, LTv., 8680 Ry, Denmark). Females aged 26 days and weighing 13-18 g and mature 6 months old males of previously proven fertility were used. They were housed in air-conditioned quarters with pelleted food and water available ad libitum and light between 7.30 a.m. and 7.30 p.m.
The female mice were superovulated with 5 I.U. FSH/LH (Antex, Leo Pharmaceuticals, Denmark) injected intraperitoneally at 9 a.m. day 1. 48 hours later (on day 3), ovulation was induced with 2.5 I.U. HCG. They were caged with males at 1 p.m. and left overnight. Mating was confirmed on the morning of day 4 by the presence of a vaginal plug.
Females were sacrificed at 9 a.m. on day 5. The oviducts were isolated and the 2-cell embryos flushed from the tubes using hand drawn glass pipettes.
Handling the 2-cells embryos outside the CO₂ incubator was carried out in the control medium supplemented with a HEPES buffer 20 mM (Flow Lab. 16-884-49).
After the oviducts were collected, the uterus of each mouse was isolated. The uterus was opened longitudinally and scraped with a rubber policeman on the uterine epithelial surface to col lect endometrial cells. These cells were handled in the HEPES buffered control medium as well. […]

[3] = system: 667/9E9; experiment: Inhibition by oligosaccharide of 667/9E9 staining of endometrial sections; format: binding, mice; details: day 4 and 5 sections; addition of 1 mM
Method: Fixed or unfixed sections were hydrated in Dulbecco's phosphate buffer pH 7.2, containing 0.1% Bovine serum albumin and 0.05% Tween 20. All antibodies and sera were diluted in the same buffer. The sections were incubated for 30 minutes in a 1/20 dilution of normal non immune goat serum […] to prevent nonspecific binding. Monoclonal antibody supernatants were diluted to either 1/10 or 1/20. The sections were overlayered with 50 µl of the primary antibody and incubated overnight in a humidified atmosphere at 4°C. Following this the sections were rinsed 4 times in the buffer and again incubated for 30 minutes in 1/20 normal goat serum. They were then stained with the second antibody, a fluorescein isothiocyanate (FITC) conjugated goat anti-mouse IgM at a final dilution of 1/80. The sections were finally rinsed in the buffer and mounted in 2.5% DABCO (Boehringer Mannheim, Germany) in 80% glycerol.

Compound: CC(=O)N[C@H]1[C@H](O[C@H]2[C@@H](O)[C@@H](CO)O[C@@H](O[C@H]3[C@H](O)[C@@H](O)C(O)O[C@@H]3CO)[C@@H]2O)O[C@H](CO)[C@@H](O)[C@@H]1O[C@@H]1O[C@H](CO)[C@H](O)[C@H](O)[C@H]1O[C@@H]1O[C@@H](C)[C@@H](O)[C@@H](O)[C@@H]1O (stereo partly drawn) [structure A]
- inhibition of implantation in vivo (in words) ([1]; 5 mmol/l, 5µl into the uterine horns): inhibits implantation in vivo in the mouse
- Impl/horn ([1]; 5µl EBS with 5 mmol/l injected into the uterine horns at plug day 4, 20 mice, controls 4.2): 1.15
- inhibition of implantation of mouse embryos (in words) ([2]; oligosaccharide concentration of 0.1 mM): inhibits the implantation of mouse embryos
- Test impl/total (no. of blastocysts implanting/total no. of blastocysts added to the culture) [2]: 134/228
- inhibition of the staining of the endometrial sections by 667/9E9 [3]: could be inhibited

Compound: CC(=O)N[C@H]1[C@H](O[C@H]2[C@@H](O)[C@@H](CO)O[C@@H](O[C@H]3[C@H](O)[C@@H](O)C(O)O[C@@H]3CO)[C@@H]2O)O[C@H](CO)[C@@H](O)[C@@H]1O[C@@H]1O[C@H](CO)[C@H](O)[C@H](O)[C@H]1O (stereo partly drawn) [structure B, reference compound]
- Test impl/total (no. of blastocysts implanting/total no. of blastocysts added to the culture) [2]: 92/129
